The text below walks through data of patent US7572606B1 (Nereus Pharmaceuticals, Inc., priority 2005, dated 2009).

Molecules are shown by their SMILES.

The EC50 is the midpoint of the concentration-response curve. A low value points to a more potent agent. As usually defined, the viability is a per cent measure of how many cells are alive, often set against a control.

The subject of one series is B16-F10. Kind of series: Cell growth inhibition, resazurin, 48 h. The class given is cell-based, mouse. Conditions: B16-F10, 48 h drug exposure. The protocol:
RPMI 8226 (CCL-155), HT-29 (HTB-38), and B16-F10 (CRL-6475) cells were purchased from ATCC. RPMI 8226 cells were maintained in RPMI 1640 media supplemented with 10% (v/v) FBS, 2 mM L-glutamine, 1 mM sodium pyruvate and Penicillin/Streptomycin at 100 IU/ml and 100 μg/ml, respectively. HT-29 cells were maintained in McCoys 5A supplemented with 10% (v/v) FBS, 2 mM L-glutamine, 1 mM sodium pyruvate, 1% (v/v) non-essential amino acids, 10 mM HEPES and Penicillin/Streptomycin at 100 IU/ml and 100 μg/ml, respectively. B16-F10 cells were maintained in DMEM supplemented with 10% (v/v) FBS, 2 mM L-glutamine, 10 mM HEPES and Penicillin/Streptomycin at 100 IU/ml and 100 μg/ml, respectively.
RPMI 8226 cells were seeded at 2×10^4 cells/well in 90 μl RPMI media containing 10% (v/v) FBS or 1% (v/v) FBS into 96 well black-walled, clear-bottom tissue culture plates. […] Formulae II-16, II-17 and Formula II-18 were serially diluted in media containing 1% or 10% FBS and added in triplicate to the test wells. […] The final concentration of Formula II-18 ranged from 2 μM to 630 pM.
For orientation: The colour change of resazurin is a common sign of viable cells or microbes.

The subject of a further series is CCD-27sk. Kind of series: Cytotoxic activity, 48 h, normal fibroblasts. Type of series: cell-based. The following applies: CCD-27sk normal human fibroblasts.
Series [1] relates to Caspase-3 activity in Jurkat cells. Briefly: Caspase-3 activity assay (EnzChek). Type of series: cell-based, human. Conditions: EC50 concentration, 19 hours. The protocol: Jurkat cells were plated at 2×10^6 cells/3 mL per well in a 6-well plate and incubated at 37° C., 5% (v/v) CO2 and 95% (v/v) humidity. […] Bhalla, et al., Blood 82:3133 (1993). […] Cells treated with 0.25% DMSO served as the negative control. The cells were collected by centrifugation and the media removed. Cell pellets were processed for the Caspase-3 activity assay as described in the manufacturer's protocol (EnzChek Caspase-3 Assay Kit from Molecular Probes (E-13183; see Appendix G, which form a part of this application and is also available at hypertext transfer protocol on the worldwide web at “probes.com/media/pis/mp13183.pdf.”. In brief, cell pellets were lysed on ice, mixed with the EnzChek Caspase-3 components in a 96-well plate, and then incubated in the dark for 30 minutes prior to reading fluorescence of cleaved benzyloxycarbonyl-DEVD-AMC using a Packard Fusion with λex=485 nm and λem=530 nm filters. Protein concentrations for lysates were determined using the BCA Protein Assay Kit (Pierce) and these values were used for normalization.

The next series concerns RAW264.7 cells. Conditions: 12 nM, compound alone.
Series [2] concerns MM.1R and Dox-40 cell lines, patient-derived multiple myeloma cells.

`C[C@@]12OC(=O)[C@]1([C@@H](O)[C@@H]1C=CCCC1)NC(=O)[C@@H]2CCCl` [Formula II-16, Salinosporamide A]: the EC50 worked out at 47 ± 20 nM with B16-F10; 33 nM in the series with B16-F10 (Mus musculus, B16-F10, 48 h); 196 nM in the series on CCD-27sk. The Caspase-3 activity result in series [1] is “activation of Caspase-3”. The viability in the series on RAW264.7 cells amounted to 96%. Also, the “activity against drug resistant multiple myeloma” value in series [2] is “active against MM.1R and Doxorubicin-resistant Dox-40 cell lines”.
